The record followed here is BindingDB's records for doi:10.7270/Q2736PBV (Broad Institute, 2009).

One may read the EC50 as the concentration at which the effect is half-maximal.

Structures are written as SMILES.

The target of the assay is T1, Streptokinase A (Streptococcus pyogenes serotype M1, UniProt P10520).
T1 sequence (P10520 whole entry): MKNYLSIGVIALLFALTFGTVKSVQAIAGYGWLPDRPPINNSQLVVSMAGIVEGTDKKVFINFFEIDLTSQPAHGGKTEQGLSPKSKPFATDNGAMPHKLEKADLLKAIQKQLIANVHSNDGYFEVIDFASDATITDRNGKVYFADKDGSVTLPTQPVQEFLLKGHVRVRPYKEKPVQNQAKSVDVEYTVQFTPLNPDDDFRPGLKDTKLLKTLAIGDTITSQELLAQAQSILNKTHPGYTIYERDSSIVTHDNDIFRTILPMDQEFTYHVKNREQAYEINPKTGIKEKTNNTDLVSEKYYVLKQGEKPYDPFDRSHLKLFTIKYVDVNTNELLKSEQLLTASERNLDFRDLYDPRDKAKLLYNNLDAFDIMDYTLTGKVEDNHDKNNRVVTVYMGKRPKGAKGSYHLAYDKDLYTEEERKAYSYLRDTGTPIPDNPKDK
Put plainly: viability-normalized secreted streptokinase activity reduction – plasminogen activation absorbance, OD405, dose response (AID 1914).
The compound `COc1ccc(C(=O)Oc2ccc(C(C)=O)cc2)c(OC)c1` [(4-acetylphenyl) 2,4-dimethoxybenzoate] returned an EC50 greater than 150 µM. Take `CC(C)(C)C1CCC2=C(C#N)C(=N)C(C#N)(C#N)C(c3cccs3)C2C1` (configuration not stated) [MLS000552642]: the EC50 came out at 25.7 µM. In the case of `CC(NNC(=O)c1ccccc1O)=C1C(=O)c2ccccc2C1=O` [MLS000523164], the EC50 was greater than 150 µM. As for `Cc1ccc(NNC2=CS(=O)(=O)N(C)c3ccsc32)cc1` [4-methyl-N-[(1-methyl-2,2-dioxo-4-thieno[3,2-c]thiazinylidene)amino]aniline], the EC50 stood at 4.04 µM.

`O=C1C(=NNC(=S)Nc2ccccc2F)c2ccccc2N1Cc1ccc(F)cc1` displayed a concentration for a half-maximal effect (EC50) of 0.607 µM.

As for `Cc1cc(C)c(N=Nc2c(C)[nH]n(C(N)=S)c2=O)c(C)c1`, the half-maximal effective concentration (EC50) is greater than 150 µM. Take `CNC(=O)c1c(NC(=O)c2ccc(-n3c(O)ccc3O)cc2)sc2c1CCC(C)C2` (configuration not stated) [SMR000806319]: the EC50 was greater than 150 µM.

As for `COc1cccc(N=NCc2cccc(Br)c2O)c1` [(6E)-2-bromo-6-[[2-(3-methoxyphenyl)hydrazinyl]methylidene]cyclohexa-2,4-dien-1-one], a half-maximal effect (EC50) was put at 19.6 µM.

For the compound `COc1ccc(CN=Nc2cc(C)nc(-n3nc(C)cc3C)n2)c(OC)c1` [MLS000589396], the EC50 is greater than 150 µM. The compound `CC(=N)C(C#N)C(=O)CSc1nc2cc(Cl)ccc2c(=O)n1Cc1ccco1` (configuration not stated) [(E)-3-amino-2-[2-[7-chloro-3-(furan-2-ylmethyl)-4-oxoquinazolin-2-yl]sulfanylacetyl]but-2-enenitrile] registered an EC50 greater than 150 µM. Take `CCCc1sc(N=NCc2ccccn2)nc1-c1ccc(F)cc1` [SMR000116776]: the EC50 was greater than 150 µM.

The compound `Cc1cc(=O)n(-c2nc(-c3ccccc3)cs2)[nH]1` [SMR000175888] had a half-maximal effective concentration (EC50) of 10 µM.

Take `CN(C)c1ccc(CN=Nc2nc3ccccc3o2)cc1`: the concentration for a half-maximal effect (EC50) was greater than 150 µM. The result for `COc1cc(CN=Nc2nc(Nc3ccccc3)nc(-n3nc(C)cc3C)n2)cc(OC)c1OC` [6-(3,5-dimethylpyrazol-1-yl)-N4-phenyl-N2-[(3,4,5-trimethoxyphenyl)methylideneamino]-1,3,5-triazine-2,4-diamine] reads greater than 150 µM.

In the case of `O=C1NC(=O)N(Cc2ccccc2)C(=O)C1=CNNC(=O)c1ccccc1` [N'-[(E)-[2,4,6-tris(oxidanylidene)-1-(phenylmethyl)-1,3-diazinan-5-ylidene]methyl]benzohydrazide], the EC50 was greater than 150 µM. The compound `O=C1Nc2ccccc2C1=NNc1ccc(S(=O)(=O)Nc2cccc(Cl)c2)cc1[N+](=O)[O-]` [N-(3-chlorophenyl)-3-nitro-4-[2-(2-oxoindol-3-yl)hydrazinyl]benzenesulfonamide] came in with a half-maximal effective concentration (EC50) of 27.4 µM.

The compound `Cc1nc(N=NC(C)c2ccc(Br)cc2)cc(N2CCCCC2)n1` (configuration not stated) [N-[1-(4-bromophenyl)ethylideneamino]-2-methyl-6-piperidin-1-ylpyrimidin-4-amine] yielded a concentration for a half-maximal effect (EC50) of 46.7 µM.

The compound `O=C1C([N+](=O)[O-])=CC(Cl)=CC1/C=N/NC(=O)C(O)(c1ccccc1)c1ccccc1` (configuration not stated) [N''''-[(E)-(3-chloro-5-nitro-6-oxocyclohexa-2,4-dien-1-ylidene)methyl]-2-hydroxy-2,2-diphenylacetohydrazide] registered an EC50 greater than 150 µM.

Turning to `COc1ccccc1CN=Nc1cc(C)nc(-n2nc(C)cc2C)n1` [SMR000212744], the EC50 is greater than 150 µM. Take `CCCCCCn1[nH]c(C)c(C(=O)c2ccc(Cl)cc2)c1=O` [4-(4-Chloro-benzoyl)-2-hexyl-5-methyl-2,4-dihydro-pyrazol-3-one]: the EC50 is greater than 150 µM. In turn, `CC(C)COC(=O)c1cccc2c1-c1ccccc1C2N=O` (configuration not stated) [isobutyl 9-(hydroxyimino)-9H-fluorene-4-carboxylate] yielded an EC50 of 50 µM.

For `Cc1[nH]c2ccccc2c1/C=C1\N=C(c2ccc(F)cc2)OC1=O` [2-(4-fluorophenyl)-4-[(2-methyl-1H-indol-3-yl)methylene]-1,3-oxazol-5(4H)-one], the response was half-maximal at 16.6 µM (EC50).
